According to US20260262643A1, “HERBICIDAL BENZOXAZINES” (FMC CORPORATION, priority 2022, published 2026):
Read-outs that look alike come from different tables or passages of the source.

Key:
kochia = test: Test A preemergence; type: in vivo, Bassia scoparia; conditions: Bassia scoparia, pre-emergence, 240 h, read-out: Plant response rating, Kochia; for pest or weed control at 125 g/ha: 125 g ai/ha, visual injury after 10 days, 0 to 100 scale, 0 is no effect, 100 is complete control; for pest or weed control at 500 g/ha: 500 g ai/ha, 0 to 100 scale (0 no effect, 100 complete control), 10 days
Outline: (§1)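 Visual injury ratings on a 0–100 scale (100 = complete control) versus untreated controls, taken 10 days after treatment in greenhouse. Preemergence: directed soil spray onto seeded loam/sand. Postemergence: foliar application at one- to two-leaf stage, plants 2–10 cm. Formulation: non-phytotoxic solvent plus surfactant.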

oat, wild [1] = test: Test A postemergence; type: in vivo, Avena fatua; conditions: Avena fatua, post-emergence, 240 h, read-out: Plant response rating, Oat, Wild; for pest or weed control at 500 g/ha: 500 g ai/ha; for pest or weed control at 125 g/ha: 125 g ai/ha
Outline: as §1

wheat [2] = test: Test A postemergence; type: in vivo, Triticum aestivum; conditions: Triticum aestivum, post-emergence, 240 h, read-out: Plant response rating, Wheat; for plant injury at 500 g/ha: 500 g ai/ha; for plant injury at 125 g/ha: 125 g ai/ha
Outline: as §1

ryegrass, Italian = test: Test A preemergence; type: in vivo, Lolium multiflorum; conditions: Lolium multiflorum, pre-emergence, 240 h, read-out: Plant response rating, Ryegrass, Italian; for pest or weed control at 125 g/ha: 125 g ai/ha, visual injury after 10 days, 0 to 100 scale, 0 is no effect, 100 is complete control; for pest or weed control at 500 g/ha: 500 g ai/ha, 0 to 100 scale (0 no effect, 100 complete control), 10 days
Outline: as §1

soybean = test: Test A postemergence; type: in vivo, Glycine max; conditions: Glycine max, post-emergence, 240 h, read-out: Plant response rating, Soybean; for plant injury at 500 g/ha: 500 g ai/ha; for plant injury at 125 g/ha: 125 g ai/ha
Outline: as §1

oat, wild [3] = test: Test A preemergence; type: in vivo, Avena fatua; conditions: Avena fatua, pre-emergence, 240 h, read-out: Plant response rating, Oat, Wild; for pest or weed control at 125 g/ha: 125 g ai/ha, visual injury after 10 days, 0 to 100 scale, 0 is no effect, 100 is complete control; for pest or weed control at 500 g/ha: 500 g ai/ha, 0 to 100 scale (0 no effect, 100 complete control), 10 days
Outline: as §1

blackgrass = test: Test A postemergence; type: in vivo, Alopecurus myosuroides; conditions: Alopecurus myosuroides, post-emergence, 240 h, read-out: Plant response rating, Blackgrass; for pest or weed control at 125 g/ha: 125 g ai/ha, postemergence, 10 days, visual injury, 0 to 100 scale (0 no effect, 100 complete control); for pest or weed control at 500 g/ha: 500 g ai/ha, Postemergence, 0 to 100 scale
Outline: as §1

foxtail, giant = test: Test A preemergence; type: in vivo, Setaria faberi; conditions: Setaria faberi, pre-emergence, 240 h, read-out: Plant response rating, Foxtail, Giant; for pest or weed control at 125 g/ha: 125 g ai/ha, visual injury after 10 days, 0 to 100 scale, 0 is no effect, 100 is complete control; for pest or weed control at 500 g/ha: 500 g ai/ha, 0 to 100 scale (0 no effect, 100 complete control), 10 days
Outline: as §1

pigweed, palmer = test: Test A preemergence; type: in vivo, Amaranthus palmeri; conditions: Amaranthus palmeri, pre-emergence, 240 h, read-out: Plant response rating, Pigweed, Palmer; for pest or weed control at 125 g/ha: 125 g ai/ha, visual injury after 10 days, 0 to 100 scale, 0 is no effect, 100 is complete control; for pest or weed control at 500 g/ha: 500 g ai/ha, 0 to 100 scale (0 no effect, 100 complete control), 10 days
Outline: as §1

wheat [4] = test: Test A preemergence; type: in vivo, Triticum aestivum; conditions: Triticum aestivum, pre-emergence, 240 h, read-out: Plant response rating, Wheat; for plant injury at 125 g/ha: 125 g ai/ha, visual injury after 10 days, 0 to 100 scale, 0 is no effect, 100 is complete control; for plant injury at 500 g/ha: 500 g ai/ha, 0 to 100 scale (0 no effect, 100 complete control), 10 days
Outline: as §1

horseweed = test: Test A postemergence; type: in vivo, Erigeron canadensis; conditions: Erigeron canadensis, post-emergence, 240 h, read-out: Plant response rating, Horseweed; for pest or weed control at 125 g/ha: 125 g ai/ha; for pest or weed control at 500 g/ha: 500 g ai/ha
Outline: as §1

ragweed = test: Test A postemergence; type: in vivo, Ambrosia artemisiifolia; conditions: Ambrosia artemisiifolia, post-emergence, 240 h, read-out: Plant response rating, Ragweed; for pest or weed control at 500 g/ha: 500 g ai/ha; for pest or weed control at 125 g/ha: 125 g ai/ha
Outline: as §1

ducksalad = test: Test B flooded paddy test; type: in vivo, Heteranthera limosa; conditions: Heteranthera limosa, 312 h, 250 g ai/ha, Flood, 13 days, 0 to 100 scale (0 no effect, 100 complete control); read-out: Plant response rating, Ducksalad
Outline: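 Species grown to 2-leaf stage; pots flooded 3 cm above soil and compound applied directly to paddy water, depth maintained throughout. After 13 days in greenhouse, plants visually rated against controls on 0–100 scale (0 no effect, 100 complete control); dash means no result.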

corn = test: Test A preemergence; type: in vivo, Zea mays; conditions: Zea mays, pre-emergence, 240 h; for Corn plant response rating (crop injury, 0 = no effect, 100 = complete kill) at 125 g/ha: 125 g ai/ha, visual injury after 10 days, 0 to 100 scale, 0 is no effect, 100 is complete control; for Corn plant response rating (crop injury, 0 = no effect, 100 = complete kill) at 500 g/ha: 500 g ai/ha, 0 to 100 scale (0 no effect, 100 complete control), 10 days
Outline: as §1

[5] = postemergence, 10 days, visual injury, 0 to 100 scale (0 no effect, 100 complete control)

SMILES	pest or weed control at 125 g/ha (kochia)	pest or weed control at 500 g/ha (kochia)	pest or weed control at 500 g/ha (oat, wild [1]; [5])	plant injury at 500 g/ha (wheat [2]; [5])	pest or weed control at 125 g/ha (ryegrass, Italian)	pest or weed control at 500 g/ha (ryegrass, Italian)	pest or weed control at 125 g/ha (oat, wild [3])	pest or weed control at 500 g/ha (oat, wild [3])	pest or weed control at 125 g/ha (blackgrass)	pest or weed control at 500 g/ha (blackgrass)	pest or weed control at 125 g/ha (foxtail, giant)	pest or weed control at 500 g/ha (foxtail, giant)	pest or weed control at 125 g/ha (pigweed, palmer)	pest or weed control at 500 g/ha (pigweed, palmer)	plant injury at 125 g/ha (wheat [4])	plant injury at 500 g/ha (wheat [4])	pest or weed control at 125 g/ha (horseweed; [5])	pest or weed control at 250 g/ha (ducksalad)	Corn plant response rating (crop injury, 0 = no effect, 100 = complete kill) at 125 g/ha (corn)	Corn plant response rating (crop injury, 0 = no effect, 100 = complete kill) at 500 g/ha (corn)	also measured
Cc1ncn(-c2ccc(C)c(C(=O)N3C[C@H](C)Oc4c(Cl)cccc43)c2)n1 (single isomer, unassigned) [Compound 74]	40%	100%	60%	80%	100%	100%	60%	90%	70%	90%	100%	100%	90%	100%	20%	90%	0%	60%	40%	90%	plant injury at 500 g/ha (soybean; [5]): 100%; pest or weed control at 500 g/ha (horseweed; [5]): 0%; pest or weed control at 500 g/ha (ragweed; [5]): 50%
COc1ccc(-n2cncn2)cc1C(=O)N1C[C@H](C)Oc2c(C)cccc21 [Compound 63, [(2S)-2,3-Dihydro-2,8-dimethyl-4H-1,4-benzoxazin-4-yl][2-methoxy-5-(1H-1,2,4-triazol-1-yl)phenyl]methanone]	30%	40%			90%	100%	60%	90%	70%	90%	100%	100%	40%	90%	40%	90%	20%	90%	60%	80%	pest or weed control at 125 g/ha (oat, wild [1]; [5]): 70%; pest or weed control at 500 g/ha (oat, wild [1]; Postemergence, 0 to 100 scale): 80%; plant injury at 125 g/ha (wheat [2]; [5]): 70%; plant injury at 500 g/ha (wheat [2]; Postemergence, 0 to 100 scale): 90%; plant injury at 125 g/ha (soybean; [5]): 100%; plant injury at 500 g/ha (soybean; Postemergence, 0 to 100 scale): 100%; pest or weed control at 500 g/ha (horseweed; Postemergence, 0 to 100 scale): 40%; pest or weed control at 125 g/ha (ragweed; [5]): 40%; pest or weed control at 500 g/ha (ragweed; Postemergence, 0 to 100 scale): 40%
C#Cc1ncn(-c2cccc(C(=O)N3C[C@H](C)Oc4c(C)cccc43)c2)n1 [Compound 64, [(2S)-2,3-Dihydro-2,8-dimethyl-4H-1,4-benzoxazin-4-yl][3-(3-ethynyl-1H-1,2,4-triazol-1-yl)phenyl]methanone]	80%	90%			90%	100%	30%	70%	40%	70%	90%	100%	40%	100%	20%	40%	0%	25%	20%	50%	pest or weed control at 125 g/ha (oat, wild [1]; [5]): 50%; pest or weed control at 500 g/ha (oat, wild [1]; Postemergence, 0 to 100 scale): 70%; plant injury at 125 g/ha (wheat [2]; [5]): 10%; plant injury at 500 g/ha (wheat [2]; Postemergence, 0 to 100 scale): 40%; plant injury at 125 g/ha (soybean; [5]): 80%; plant injury at 500 g/ha (soybean; Postemergence, 0 to 100 scale): 100%; pest or weed control at 500 g/ha (horseweed; Postemergence, 0 to 100 scale): 40%; pest or weed control at 125 g/ha (ragweed; [5]): 0%; pest or weed control at 500 g/ha (ragweed; Postemergence, 0 to 100 scale): 40%
Cc1ccc(-n2cnc(C(C)C)n2)cc1C(=O)N1C[C@H](C)Oc2c(Cl)cccc21 [Compound 73, [(2S)-8-Chloro-2,3-dihydro-2-methyl-4H-1,4-benzoxazin-4-yl][2-methyl-5-[3-(1-methylethyl)-1H-1,2,4-triazol-1-yl]phenyl]methanone]	100%	100%	80%	80%	90%	100%	80%	90%	90%	90%	100%	100%	100%	100%	20%	80%	30%	70%	60%	80%	plant injury at 500 g/ha (soybean; [5]): 100%; pest or weed control at 500 g/ha (horseweed; [5]): 50%; pest or weed control at 500 g/ha (ragweed; [5]): 80%
